Experimental data as given in article PMC4961418, “A Selective Irreversible Inhibitor of Furin Does Not Prevent Pseudomonas Aeruginosa Exotoxin A-Induced Airway Epithelial Cytotoxicity” (PLoS ONE, 2016).
Side chains are listed from the residue outwards. Peptide text beside a SMILES is read from it. * marks the point of attachment. Biotin = O=C1N[C@H]2[C@H](CS[C@H]2CCCCC(=O)*)N1; X1 = N=C(N)NCCCC(N*)P(=O)(Oc1ccccc1)Oc1ccccc1; Palmitoyl = CCCCCCCCCCCCCCCC(=O)*; Ahx = NCCCCCC(=O)O

How the values were obtained:
[1] = system: cell surface furin-like activity (CuFi-1 epithelial cells); experiment: Epithelial cell surface furin-like activity assay; type: cell-based, human; settings: 10 μM inhibitor, pERTKR substrate 50 μM applied to cell cultures
Experimental: The CuFi-1 cell line was derived from human airway epithelium of a CF patient (F508del/F508del) transformed with a reverse transcriptase component of telomerase, hTERT and human papillomavirus type 16 E6 and E7 genes. Cells were grown as submerged cultures using bronchial epithelial growth medium (BEBM including a supplement pack) containing: epidermal growth factor, hydrocortisone, bovine pituitary extract, transferrin, bovine insulin, triiodothyronine, epinephrine, retinoic acid, penicillin-streptomycin (0.025 μg/ml), gentamycin ([…]) and amphotericin (25 μg/ml).
Cell culture media was removed from CuFi-1 epithelial cells grown in 96 well microtitre plates (Thermo Scientific Sterilin; clear bottom, black walled) and replaced with PBS /+ inhibitor compounds (furin I or QUB-F1). The furin fluorogenic substrate (pERTKR -NH2Mec) was then applied directly to the cell cultures to give a final concentration of 50 μM. Cell surface proteolytic activity was measured by monitoring the formation of–NH2Mec at λex 360 nm and λem 480 nm using a 5 mm orbital scan every 60 s over a 1 h period (FLUOstar Optima microplate reader; BMG Labtech).
Fig 4 Effect of furin inhibitors on PEA-induced epithelial cell toxicity. (A) Cell toxicity (%) induced by 2 μg/ml PEA (24 h) was measured in the presence or absence of furin I or QUB-F1. Data represent mean ± s.e.m. *P<0.05. […]

recombinant human furin = biological target: T1, recombinant human furin (Homo sapiens, UniProt P09958); experiment: Western blot with streptavidin-HRP of inhibitor-furin complex; type: binding; settings: QUB-F1 100 μM, furin 0.4 μg, reducing and denaturing conditions
T1 construct: purchased R&D Systems
T1 sequence (P09958 108-794): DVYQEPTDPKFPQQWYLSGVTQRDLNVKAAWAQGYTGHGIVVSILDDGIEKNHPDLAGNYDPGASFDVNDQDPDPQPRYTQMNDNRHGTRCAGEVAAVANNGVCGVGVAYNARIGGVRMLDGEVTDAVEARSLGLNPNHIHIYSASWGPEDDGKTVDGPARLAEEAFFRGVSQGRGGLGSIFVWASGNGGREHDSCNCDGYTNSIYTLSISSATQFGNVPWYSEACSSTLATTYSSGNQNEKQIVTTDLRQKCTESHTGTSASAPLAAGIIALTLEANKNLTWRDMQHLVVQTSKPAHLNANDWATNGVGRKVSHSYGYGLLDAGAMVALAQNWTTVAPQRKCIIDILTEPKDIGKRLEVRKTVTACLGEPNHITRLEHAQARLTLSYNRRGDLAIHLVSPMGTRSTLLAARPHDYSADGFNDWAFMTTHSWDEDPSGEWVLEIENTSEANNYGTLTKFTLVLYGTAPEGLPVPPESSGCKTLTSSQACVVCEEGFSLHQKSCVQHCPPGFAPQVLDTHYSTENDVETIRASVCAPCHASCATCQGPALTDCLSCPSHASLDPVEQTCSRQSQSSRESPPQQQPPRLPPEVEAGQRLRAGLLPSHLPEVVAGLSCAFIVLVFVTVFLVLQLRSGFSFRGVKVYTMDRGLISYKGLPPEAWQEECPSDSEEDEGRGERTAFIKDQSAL
Experimental: Recombinant human furin (0.4 μg) was incubated with QUB-F1 (100 μM) for 45 minutes at 37°C. The sample was then denatured and reduced in Laemmli treatment buffer for 5 minutes at 95°C, resolved by SDS-PAGE, before transfer onto a nitrocellulose membrane which was blocked with a solution of Tris-buffered saline (TBS) containing 3% (w/v) bovine serum albumin and 0.1% (v/v) Tween-20. The membrane was subsequently probed with a streptavidin-Horseradish peroxidase conjugate (1:10,000) (Vector-Laboratories) in blocking solution for 1 h prior to detection by chemiluminescence (Luminata Forte Western HRP substrate (Millipore)).
Fig 1 Irreversible inhibition and visualization of recombinant human furin by QUB-F1. […] The inhibitor-proteases complex can be visualized using streptavidin-HRP, which detects the biotin reporter group on the compound.

CCCCCCCCCCCCCCCC(=O)N[C@@H](CCCCNC(=O)CCCCCNC(=O)CCCC[C@@H]1SC[C@@H]2NC(=O)N[C@@H]21)C(=O)N[C@@H](CCCNC(=N)N)C(=O)N[C@H](C(=O)N[C@@H](CCCCN)C(=O)NC(CCCNC(=N)N)P(=O)(Oc1ccccc1)Oc1ccccc1)C(C)C (stereo partly drawn) [QUB-F1, N^α-Pal-N^ω-(Biotinyl-Ahx)-Lys-RVKR^P(OPh)2] (Palmitoyl-K([Ahx-Biotin])RVK-X1)
inhibition of cell surface furin-like activity [1]: inhibited cell surface furin-like activity to the same extent as furin I | irreversible binding to furin (visualized by streptavidin-HRP) (recombinant human furin): irreversibly bound
